Results as given in patent publication US20130123287A1, “CONTROL AGENT FOR SOFT ROT AND CONTROL METHOD FOR THE SAME” (ISHIHARA SANGYO KAISHA, LTD., priority 2010, published 2013).

Assays:
[1] = system: soft rot of Chinese cabbage; experiment: Test for controlling soft rot of Chinese cabbage, Example 2 / Comparative Example 2 (field, cultivar Harebutai 65); type: in vivo; conditions: 1/1000 dilution, 300 L/10a sprayed twice on stems and leaves, 64 days after start
From the text: Frequency of the disease=[sigma(number of plants with the onset of the disease at each severity level*index of the onset of the disease)/(plants examined*4)]*100
Disease control value=[1-(frequency of the disease in the treated lot/frequency of the disease in the non-treated lot)]*100
• 0: No onset • 1: Onset in some of outer leaves (shippable) • 2: Onset in outer leaves and some of head leaves (by removing damaged parts, the resulting cabbage can be shipped as small cabbage but is ranked as grade B). • 3: Most of head leaves are inflicted with the onset of the disease or with severer damages (not shippable) • 4: Whole cabbage plant is inflicted with the onset of the disease and is dead.
200 g/l Azoxystrobin (Amistar 20 FLOWABLE [trade name], manufactured by Syngenta Japan K.K.) was adjusted to 500 g ai/10a (0.5 g/m^2, 2500 ml Product/10a) as the amount of the active ingredient and to 150 L/10a as the volume of diluent water.
30% w/w triflumizol (TRIFUMIN WP [trade name], manufactured by Nippon Soda Co., Ltd.) was adjusted to 500 g ai/10a (0.5 g/m^2, 1667 g Product/10a) as the amount of the active ingredient and to 150 L/10a as the volume of diluent water.
100 g/1 cyazofamid (RANMAN PLOWABLE [trade name], manufactured by Ishihara Sangyo Kaisha, Ltd.) was adjusted to 500 g ai/10a (0.5 g/m^2, 5000 ml Product/10a) as the amount of the active ingredient and to 150 L/10a as the volume of diluent water.
50% w/w penthiopyrad (GAIA WG [trade name], manufactured by Mitsui Chemicals Agro, Inc.) was adjusted to 500 g ai/10a (0.5 g/m^2, 1000 g Product/10a) as the amount of the active ingredient and to 150 L/10a as the volume of diluent water.
50 g/l flusulfamide (SCABLOCK SC [trade name], manufactured by Mitsui Chemicals Agro, Inc.) was adjusted to 500 g ai/10a (0.5 g/m^2, 10000 ml Product/10a) as the amount of the active ingredient and to 150 L/10a as the volume of diluent water.
400 g/1 chlorothalonil (Daconil 1000 [the trade name], manufactured by Sumitomo Chemical, Limited) was adjusted to 1000 g ai/10a (1.0 g/m^2, 2500 ml Product/10a) as the amount of the active ingredient and to 150 L/10a as the volume of diluent water.
After spreading an agricultural mulch-sheet and opening planting holes (diameter of about 5 cm) for permanent planting through the mulch-sheet, the spray solutions prepared as described above were sprayed onto the planting holes such that the amount of treated active ingredient of chlorothalonil was 1.0 g/m^2 (150 L per 10a) and the amount of each of the remaining spray solutions was 0.5 g/m^2 (150 L per 10a), followed by air-drying; subsequently, seedlings of Chinese cabbage (cultivar Harebutai 65) grown for 4 weeks in cell mold trays (128 holes/nursery box) were planted such that 19 seedlings were planted in each test lot having an area of 2.4 m^2 with two replications.
Preparation was performed by diluting streptomycin (Mycin 20 wettable powder solution [under the trade name] manufactured by Hokko Chemical Industry Co., Ltd.) with water to 1/1000.
In a field spread with the agricultural mulch-sheet, Chinese cabbage seedlings (cultivar: Harebutai 65) grown by the same method as in Example 2 were planted by the same method as in Example 2, for spraying the spray solution of streptomycin prepared above in (1) (at each spray volume of 300 L/10a) twice (27 days and 48 days after the planting of the seedlings) on the stems and leaves with a sprayer.
64 days after the start of the tests, all the plants in each lot were examined about the severity level of the disease to assess the frequency of the disease and the disease control value. In the same manner as described above, the frequency of the disease and the disease control value were determined. Additionally, soft rot is a disease with damages hardly controlled, so even a chemical at the level C determined by the tests of the effects can practically be used.

[2] = system: bacteria causing the soft rot (Erwinia carotovora); experiment: Inhibition test of growth of bacteria causing soft rot, Reference Test Example 3; type: cell-based; conditions: for formed colonies (growth state), grade: PSA medium, 27 degrees Celsius, 2 days
From the text: (§1) Inhibition test of growth of bacteria causing soft rot of potato An inhibition test of the growth of bacteria causing the soft rot was done, when a control agent was directly applied to the bacteria causing the soft rot. A given volume of each pesticide of triflumizol (TRIFUMIN WP [trade name] manufactured by Nippon Soda Co., Ltd.), chlorothalonil (Daconil 1000 [trade name], manufactured by Sumitomo Chemical Company, Limited) and streptomycin (Mycin Wettable powder [trade name] manufactured by Hokko Chemical Industry Co., Ltd.) was added together with a suspension of the bacteria causing the soft rot (Erwinia carotovora) to a preliminarily dissolved PSA culture medium (55 degrees Celsius) for subsequent thorough agitation, which was then spread on a plate for culturing at 27 degrees Celsius for 2 days, to examine the growth state. Subsequently, the formed colonies were examined according to the following three grades. • +: at the same level as the level of non-treated lot. Plus or minus: apparently less than the colonies of the non-treated lot. • −: almost no colonies observed.

[3] = system: bacteria causing the soft rot (Erwinia carotovora); experiment: Inhibition test of growth of bacteria causing soft rot, Reference Test Example 5; type: cell-based; conditions: for formed colonies (growth state), grade: PSA medium, 27 degrees Celsius, 2 days
Protocol: as §1, with “An” for “Inhibition test of growth of bacteria causing soft rot of potato An”, “mepanipyrim (Flupika FL” for “triflumizol (TRIFUMIN WP”, “Ltd.)” for “Ltd.), chlorothalonil (Daconil 1000 [trade name], manufactured by Sumitomo Chemical Company, Limited)”, “lot.” for “lot. Plus or minus: apparently less than the colonies of the non-treated lot. • −: almost no colonies observed.”
Plus or minus: apparently less than the colonies of the non-treated lot. • −: almost no colonies observed.

[4] = active ingredient concentration of 10 ppm

[H]/N=C(/N)N[C@H]1[C@H](O)[C@@H](O)[C@H](O[C@@H]2O[C@@H](C)[C@](O)(C=O)[C@H]2O[C@@H]2O[C@@H](CO)[C@H](O)[C@@H](O)[C@@H]2NC)[C@@H](N/C(N)=N\[H])[C@@H]1O [Streptomycin]
Determination of effect [1]: B (B: Effective (41 to 60 disease control value)) | formed colonies (growth state), grade ([2]; 1 ppm active ingredient): +, ± | formed colonies (growth state), grade ([2]; 10 ppm active ingredient): −, − | direct antibacterial activity against Erwinia carotovora (in words) [2, 4]: exerted a direct antibacterial activity | formed colonies (growth state), grade ([3]; 1 ppm active ingredient): +, ± | formed colonies (growth state), grade ([3]; 10 ppm active ingredient): −, − | direct antibacterial activity against Erwinia carotovora (in words) [3, 4]: exerted a direct antibacterial activity
